Source: ChEMBL document CHEMBL4418285, “1-cyano-pyrrolidine compounds as usp30 inhibitors” (2018)

Tests used:
[1] = molecular target: T1, Ubiquitin carboxyl-terminal hydrolase 30 (Homo sapiens, UniProt Q70CQ3); experiment: Inhibition of human USP30 catalytic domain (57 to 517 residues) using ubiquitin-rhodamine 110 as substrate preincubated for 30 min followed by substrate addition and measured after 2 hrs by fluorescence intensity kinetic assay
T1 sequence (Q70CQ3 whole entry): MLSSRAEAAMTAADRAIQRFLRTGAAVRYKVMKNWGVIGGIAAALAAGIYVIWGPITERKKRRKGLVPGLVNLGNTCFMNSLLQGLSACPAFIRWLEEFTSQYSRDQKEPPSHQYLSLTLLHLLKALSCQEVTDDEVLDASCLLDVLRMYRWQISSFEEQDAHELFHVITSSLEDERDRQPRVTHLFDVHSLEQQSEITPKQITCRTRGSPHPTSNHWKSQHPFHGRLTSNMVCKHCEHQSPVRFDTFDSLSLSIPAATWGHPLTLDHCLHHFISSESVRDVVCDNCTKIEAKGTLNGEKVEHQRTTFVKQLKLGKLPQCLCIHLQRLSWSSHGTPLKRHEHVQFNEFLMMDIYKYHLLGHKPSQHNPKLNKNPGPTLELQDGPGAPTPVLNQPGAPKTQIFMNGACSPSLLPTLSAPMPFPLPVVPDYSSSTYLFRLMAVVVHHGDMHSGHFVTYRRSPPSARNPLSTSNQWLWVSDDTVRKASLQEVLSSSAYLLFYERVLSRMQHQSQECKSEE

[2] = molecular target: T1, Ubiquitin carboxyl-terminal hydrolase 30; experiment: Inhibition of untagged human USP30 catalytic domain (57 to 517 residues) expressed in Escherichia coli using TAMRA labeled ubiquitin peptide as substrate preincubated for 30 min followed by substrate addition and measured after 2 hrs by fluorescence polarization assay

| IC50 [1] [nM] | SMILES | IC50 [2] [nM] |
| --- | --- | --- |
| 1000 to 10000 | N#CN1C[C@H]2CCN(C(=O)N3CCc4ccccc43)[C@H]2C1 | – |
| – | N#CN1C[C@H]2CCN(C(=O)Nc3cc(Cl)ccc3F)[C@H]2C1 | 100 to 1000 |
| 100 to 1000 | N#CN1CC[C@@H](NC(=O)c2ccc(N3CCOCC3)cc2)C1 | – |
| 100 to 1000 | COc1cc(-c2cc(C(=O)N(C)[C@@H]3CCN(C#N)C3)on2)ccn1 | – |
| – | N#Cc1ccc(NC(=O)N2CC[C@@H]3CN(C#N)C[C@@H]32)c(F)c1 | 100 to 1000 |
